# Experimental data from patent US11155555B2, “Compounds” (Janssen Pharmaceutica NV, priority 2015, dated 2021).
# Key:
# FGFR3 = biological target: T1, FGFR3 (Homo sapiens, UniProt P22607); test: KINOMEscan enzyme binding assay FGFR3; details: KINOMEscan (DiscoveRx); pKd = -log Kd, Kd in M
# T1 construct: purchased DiscoveRx Corporation (assay service)
# Protocol: (§1) Enzyme Binding Assays (KINOMEscan®) Kinase enzyme binding affinities of compounds disclosed herein were determined using the KINOMEscan® technology performed by DiscoveRx Corporation, San Diego, Calif., USA (www.kinomescan.com). Table A2 reports the obtained pKd values, with Kd (M) being the inhibitor binding constant value and with pKd being −log Kd: […]
# FGFR2 = biological target: T2, FGFR2 (Homo sapiens, UniProt P21802); test: KINOMEscan enzyme binding assay FGFR2; details: KINOMEscan (DiscoveRx); pKd = -log Kd, Kd in M
# T2 construct: purchased DiscoveRx Corporation (assay service)
# T2 sequence (P21802 22-821): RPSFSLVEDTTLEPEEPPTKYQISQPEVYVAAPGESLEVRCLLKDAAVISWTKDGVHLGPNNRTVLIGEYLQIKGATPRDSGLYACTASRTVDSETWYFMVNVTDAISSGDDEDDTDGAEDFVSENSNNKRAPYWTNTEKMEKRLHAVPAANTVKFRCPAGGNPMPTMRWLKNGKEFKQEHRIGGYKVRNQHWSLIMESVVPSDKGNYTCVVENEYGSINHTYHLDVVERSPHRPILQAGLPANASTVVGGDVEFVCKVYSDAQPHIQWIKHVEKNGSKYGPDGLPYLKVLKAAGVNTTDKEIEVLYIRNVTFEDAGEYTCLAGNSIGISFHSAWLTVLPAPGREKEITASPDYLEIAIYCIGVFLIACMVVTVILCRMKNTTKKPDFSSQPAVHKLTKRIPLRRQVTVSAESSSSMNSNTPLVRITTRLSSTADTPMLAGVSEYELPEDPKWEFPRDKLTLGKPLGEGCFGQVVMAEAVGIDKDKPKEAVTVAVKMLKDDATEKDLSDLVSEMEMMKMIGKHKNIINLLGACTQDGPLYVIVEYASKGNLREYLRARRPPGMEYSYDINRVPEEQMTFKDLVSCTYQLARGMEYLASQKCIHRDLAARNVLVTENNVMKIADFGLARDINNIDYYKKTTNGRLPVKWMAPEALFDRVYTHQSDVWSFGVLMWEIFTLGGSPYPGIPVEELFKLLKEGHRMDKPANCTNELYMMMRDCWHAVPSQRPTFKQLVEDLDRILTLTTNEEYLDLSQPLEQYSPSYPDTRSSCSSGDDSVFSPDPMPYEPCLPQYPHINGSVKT
# Protocol: as §1
# VEGFR2 = biological target: T3, VEGFR2 (Homo sapiens, UniProt P35968); test: KINOMEscan enzyme binding assay VEGFR2; details: KINOMEscan (DiscoveRx); pKd = -log Kd, Kd in M
# T3 construct: purchased DiscoveRx Corporation (assay service)
# T3 sequence (P35968 20-1356): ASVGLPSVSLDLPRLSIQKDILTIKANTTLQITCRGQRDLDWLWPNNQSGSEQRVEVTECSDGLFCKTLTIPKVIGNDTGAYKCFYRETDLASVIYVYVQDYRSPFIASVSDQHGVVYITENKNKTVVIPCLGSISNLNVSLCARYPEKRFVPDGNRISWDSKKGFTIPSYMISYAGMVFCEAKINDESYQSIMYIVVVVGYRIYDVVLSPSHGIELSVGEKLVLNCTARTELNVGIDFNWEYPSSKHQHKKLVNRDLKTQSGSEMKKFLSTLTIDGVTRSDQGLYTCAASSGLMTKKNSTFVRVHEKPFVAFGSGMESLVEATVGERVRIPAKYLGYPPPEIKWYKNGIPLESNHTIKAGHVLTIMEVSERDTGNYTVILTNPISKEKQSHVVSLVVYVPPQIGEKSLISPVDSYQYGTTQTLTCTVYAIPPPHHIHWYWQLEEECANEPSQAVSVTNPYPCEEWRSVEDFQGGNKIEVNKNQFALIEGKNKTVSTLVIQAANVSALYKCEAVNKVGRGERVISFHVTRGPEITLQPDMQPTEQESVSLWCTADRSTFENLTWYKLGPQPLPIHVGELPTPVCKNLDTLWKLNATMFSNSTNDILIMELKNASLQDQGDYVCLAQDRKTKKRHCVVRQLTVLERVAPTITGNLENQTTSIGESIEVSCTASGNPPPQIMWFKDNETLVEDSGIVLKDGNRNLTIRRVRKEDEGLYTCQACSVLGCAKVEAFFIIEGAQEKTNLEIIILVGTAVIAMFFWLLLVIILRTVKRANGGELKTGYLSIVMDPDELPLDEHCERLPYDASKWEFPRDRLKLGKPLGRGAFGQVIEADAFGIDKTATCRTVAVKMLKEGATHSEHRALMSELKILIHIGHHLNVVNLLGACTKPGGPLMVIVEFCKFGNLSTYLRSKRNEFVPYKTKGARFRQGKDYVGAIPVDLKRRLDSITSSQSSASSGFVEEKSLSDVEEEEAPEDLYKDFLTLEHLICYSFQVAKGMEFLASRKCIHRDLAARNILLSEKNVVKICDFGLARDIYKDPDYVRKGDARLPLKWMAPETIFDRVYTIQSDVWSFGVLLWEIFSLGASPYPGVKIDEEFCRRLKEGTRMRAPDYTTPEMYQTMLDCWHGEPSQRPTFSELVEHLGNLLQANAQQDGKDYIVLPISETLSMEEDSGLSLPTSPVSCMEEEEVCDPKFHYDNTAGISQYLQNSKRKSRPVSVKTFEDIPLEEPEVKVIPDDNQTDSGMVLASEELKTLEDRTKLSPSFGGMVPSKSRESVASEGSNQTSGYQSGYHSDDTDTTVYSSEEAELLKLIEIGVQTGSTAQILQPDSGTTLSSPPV
# Protocol: as §1
# FGFR1 = biological target: T4, FGFR1 (Homo sapiens, UniProt P11362); test: KINOMEscan enzyme binding assay FGFR1; details: KINOMEscan (DiscoveRx); pKd = -log Kd, Kd in M
# T4 construct: purchased DiscoveRx Corporation (assay service)
# T4 sequence (P11362 22-822): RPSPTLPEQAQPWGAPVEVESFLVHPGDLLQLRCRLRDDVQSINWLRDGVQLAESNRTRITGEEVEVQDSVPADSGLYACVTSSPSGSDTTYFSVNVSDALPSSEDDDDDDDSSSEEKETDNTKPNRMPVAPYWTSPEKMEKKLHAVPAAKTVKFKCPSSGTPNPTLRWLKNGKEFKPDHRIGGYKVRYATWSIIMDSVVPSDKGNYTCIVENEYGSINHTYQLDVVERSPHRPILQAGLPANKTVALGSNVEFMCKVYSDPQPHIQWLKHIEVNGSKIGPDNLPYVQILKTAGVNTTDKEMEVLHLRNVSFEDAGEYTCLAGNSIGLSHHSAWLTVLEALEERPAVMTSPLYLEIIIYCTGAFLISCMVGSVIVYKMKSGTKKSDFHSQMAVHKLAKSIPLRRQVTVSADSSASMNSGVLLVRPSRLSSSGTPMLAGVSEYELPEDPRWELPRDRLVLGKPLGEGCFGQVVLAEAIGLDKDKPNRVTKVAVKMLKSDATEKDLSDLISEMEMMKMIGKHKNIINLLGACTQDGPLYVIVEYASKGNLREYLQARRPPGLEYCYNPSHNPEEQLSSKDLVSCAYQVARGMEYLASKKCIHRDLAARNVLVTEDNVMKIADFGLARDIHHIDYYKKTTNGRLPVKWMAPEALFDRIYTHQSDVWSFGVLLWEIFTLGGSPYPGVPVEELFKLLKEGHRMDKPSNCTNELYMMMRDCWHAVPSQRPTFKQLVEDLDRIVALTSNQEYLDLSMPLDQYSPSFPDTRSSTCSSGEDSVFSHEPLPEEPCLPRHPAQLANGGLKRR
# Protocol: as §1
# FGFR4 = biological target: T5, FGFR4 (Homo sapiens, UniProt P22455); test: KINOMEscan enzyme binding assay FGFR4; details: KINOMEscan (DiscoveRx); pKd = -log Kd, Kd in M
# T5 construct: purchased DiscoveRx Corporation (assay service)
# T5 sequence (P22455 22-802): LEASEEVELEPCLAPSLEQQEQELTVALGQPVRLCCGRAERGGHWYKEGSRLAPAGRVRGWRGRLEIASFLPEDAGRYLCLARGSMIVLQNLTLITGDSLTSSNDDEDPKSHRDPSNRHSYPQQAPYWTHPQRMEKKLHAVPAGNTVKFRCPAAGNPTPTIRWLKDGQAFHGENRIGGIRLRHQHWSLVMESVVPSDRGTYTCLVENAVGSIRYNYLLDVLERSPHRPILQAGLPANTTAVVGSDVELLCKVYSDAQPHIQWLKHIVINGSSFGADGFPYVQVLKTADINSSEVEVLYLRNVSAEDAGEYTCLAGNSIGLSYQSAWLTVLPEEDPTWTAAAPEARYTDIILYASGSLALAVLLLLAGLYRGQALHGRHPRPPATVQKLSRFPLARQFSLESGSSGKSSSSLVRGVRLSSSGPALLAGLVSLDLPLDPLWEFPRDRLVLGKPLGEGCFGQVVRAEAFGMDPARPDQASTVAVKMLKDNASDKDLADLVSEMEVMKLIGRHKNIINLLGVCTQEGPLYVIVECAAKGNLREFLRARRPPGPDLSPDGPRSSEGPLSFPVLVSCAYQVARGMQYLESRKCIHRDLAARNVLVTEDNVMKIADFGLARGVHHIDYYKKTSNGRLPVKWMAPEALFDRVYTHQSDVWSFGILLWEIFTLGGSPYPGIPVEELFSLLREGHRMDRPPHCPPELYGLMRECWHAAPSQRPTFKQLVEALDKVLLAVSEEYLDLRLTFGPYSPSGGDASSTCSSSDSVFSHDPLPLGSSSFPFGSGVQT
# Protocol: as §1
# T1 sequence (P22607 23-806): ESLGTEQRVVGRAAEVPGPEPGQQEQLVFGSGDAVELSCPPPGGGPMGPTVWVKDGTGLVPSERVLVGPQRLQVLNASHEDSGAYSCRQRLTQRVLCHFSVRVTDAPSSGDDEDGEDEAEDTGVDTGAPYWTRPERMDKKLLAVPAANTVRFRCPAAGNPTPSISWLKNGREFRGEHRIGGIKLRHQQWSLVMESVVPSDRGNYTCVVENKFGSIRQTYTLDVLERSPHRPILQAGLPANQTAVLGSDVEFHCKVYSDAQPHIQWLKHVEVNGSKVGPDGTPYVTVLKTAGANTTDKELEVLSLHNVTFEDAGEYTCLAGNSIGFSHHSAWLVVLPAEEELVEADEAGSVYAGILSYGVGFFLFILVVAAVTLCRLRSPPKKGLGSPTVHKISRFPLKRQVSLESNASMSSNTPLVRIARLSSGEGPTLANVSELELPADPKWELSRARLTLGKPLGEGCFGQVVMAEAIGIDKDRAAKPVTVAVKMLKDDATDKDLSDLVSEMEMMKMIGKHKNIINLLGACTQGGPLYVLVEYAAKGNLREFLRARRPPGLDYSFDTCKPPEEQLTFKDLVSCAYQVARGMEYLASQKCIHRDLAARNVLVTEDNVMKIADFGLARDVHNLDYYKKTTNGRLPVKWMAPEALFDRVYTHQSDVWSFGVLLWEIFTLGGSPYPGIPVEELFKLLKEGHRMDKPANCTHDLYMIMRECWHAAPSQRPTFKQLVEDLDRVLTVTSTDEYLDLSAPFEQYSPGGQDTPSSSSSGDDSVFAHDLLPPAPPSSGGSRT
Kd (FGFR3),melting point,Kd (FGFR2),Kd (VEGFR2),Kd (FGFR1),Kd (FGFR4),Structure (SMILES)
2.4 nM,166 °C,4.27 nM,45.7 nM,0.794 nM,11 nM,COc1cc(OC)c(F)c(N2CCN(C(C)C)Cc3c2ccc2ncc(-c4cnn(C)c4)nc32)c1 [Compound 1]
4.17 nM,–,6.03 nM,93.3 nM,1.48 nM,8.91 nM,COc1cc(OC)c(F)c(N2CCN(C(C)C)Cc3c2ccc2ncc(-c4cnn(C)c4)cc32)c1 [Compound 2]
5.5 nM,–,11.7 nM,70.8 nM,1.55 nM,15.8 nM,COc1cc(OC)c(F)c(N2CCN(C(C)C)Cc3c2ccc2ncc(-c4cn[nH]c4)nc32)c1 [Compound 3]
7.41 nM,–,19.1 nM,58.9 nM,2.09 nM,27.5 nM,COc1cc(OC)c(Cl)c(N2CCN(C(C)C)Cc3c2ccc2ncc(-c4cnn(C)c4)nc32)c1 [Compound 4]
14.1 nM,–,26.9 nM,263 nM,7.24 nM,77.6 nM,COc1cc(OC)c(Cl)c(N2CCN(C(C)C)Cc3c2ccc2ncc(-c4cnn(C)c4)nc32)c1Cl [Compound 5]
> 3020 nM,–,> 3020 nM,> 3020 nM,977 nM,> 3020 nM,CC(C)N1CCN(c2cc(O)cc(O)c2F)c2ccc3ncc(-c4cnn(C)c4)nc3c2C1 [Compound 9]
8.91 nM,–,44.7 nM,123 nM,3.89 nM,60.3 nM,COc1cc(O)cc(N2CCN(C(C)C)Cc3c2ccc2ncc(-c4cnn(C)c4)nc32)c1F [Compound 11]
10.7 nM,–,19.5 nM,115 nM,3.09 nM,38 nM,COc1cc(OC)c(F)c(N2CCN(C(C)C)Cc3c2ccc2ncc(-c4cnn(C)c4)cc32)c1F [Compound 12]
7.94 nM,–,39.8 nM,275 nM,2.29 nM,18.2 nM,COc1cc(OC)c(F)c(N2CCN(C(C)C)Cc3c2ccc2ncc(-c4cn[nH]c4)cc32)c1 [Compound 16]
